# Data reported in patent publication US6585954B1, “Method for searching steroid sulfatase inhibitors” (Kyowa Hakko Kogyo Co., Ltd., priority 1998, dated 2003).
# Columns and labels:
# [1] = tested on: tumor of transformed cell line carrying the introduced human steroid sulfatase gene (STS); experiment: Effect of a steroid sulfatase inhibitor on estrone-3-sulfate-dependent tumor growth in nude mice (Example 5); format: in vivo, BALB/c-nu/nu mice; details: 0.1 mg/kg estrone-3-sulfate alone, subcutaneously for 22 days; by the 38th day
# Protocol: The volume of a tumor can be calculated from the shorter diameter and the longer diameter of the tumor measured with slide calipers according to the following approximation formula.
# Tumor volume=(longer diameter)×(shorter diameter)^2÷2
# Animals in which the tumor growth was confirmed after administration of estrone-3-sulfate are selected, and a test compound is administered thereto. Then, the tumor volume is measured to estimate the steroid sulfatase-inhibiting activity of the test compound. The test compound may be administered by any of intravenous, subcutaneous, intraperitoneal and oral routes. The steroid sulfatase-inhibiting activity of the compound can be estimated by measuring the tumor volume at intervals of 3-4 days after the administration, and then comparing the tumor growth between the group to which only estrone-3-sulfate was administered and the group to which estrone-3-sulfate and the test compound were administered.
# (§1) The cells were suspended at a concentration of 2×10^8 cells/ml and the suspension was mixed with an equal volume of matrigel-basement membrane (Becton & Dickinson). The resulting mixture was subcutaneously transplanted into 7- to 8-weeks-old female BALB/c-nu/nu mice, (nude mice, each group consisting of 5 mice) in an amount of 0.1 ml (1×10^7 cells). […]
# [2] = tested on: transformed cell line carrying the introduced human steroid sulfatase gene (STS); experiment: Tumor formation after transplantation of cells carrying an introduced steroid sulfatase gene (Example 4); format: in vivo, BALB/c-nu/nu mice; details: 0.1 mg/kg estrone-3-sulfate subcutaneously every day, after tumor growth stopped following estrogen preparation
# Source text: First, cells carrying the introduced steroid sulfatase gene are transplanted into an animal such as a mouse for fixation to form a tumor. That is, tumor cells carrying the introduced steroid sulfatase gene are transplanted subcutaneously into an immunodeficient mouse, for example, a BALB/c-nu/nu (a nude mouse) or an SCID mouse in an amount of 1-5×10^6 cells to form a tumor. At the time of transplantation, a crude extract of basement membrane containing adhesion factor (e.g., matrigel-basement membrane, Becton & Dickinson) may be added in order to improve the fixation rate [Br. J. Cancer, 67, 953 (1993)]. In the case of estrogen-dependent breast cancer, the fixation rate is improved and the tumor growth after the fixation is promoted by administering an estrogen compound.
# as §1, with “cells). On the day of transplantation and 2 weeks later, an estrogen preparation (EP depo, Teikoku Zoki) was intramuscularly administered.” for “cells).”
compound,measurement,setting,value
C[C@]12CC[C@@H]3c4ccc(OS(=O)(=O)O)cc4CC[C@H]3[C@@H]1CCC2=O [estrone-3-sulfate],tumor volume relative to the initial volume,[1],1.4 times the initial volume
same,tumor growth after administration,[2],the tumor grew in all mice and there was no reduction of tumor
